Experimental data: the supplement of paper PMC11208160

Assay: recombinant barcode read abundance after kanamycin selection (control-corrected) (log10(CPM+1)); higher = more efficient recombination; sequences stand for … in AGTGCAGAGAAAATCGGCCAGTTTTCTCTGCCTGCAGTCCGCATGCCGT…AGATTTATGCAGCGGACTGCCTTTCTCCCAAAGTGATAAACCGGACAGTATCATGGACCGGTTTTCCCGGTAATCCGTATTTGCAAGGTTGGTTTCACT; site = the 11-nt target
Procedure, shortened: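 Values are log10(CPM+1) from a pooled E. coli screen of targets paired with IS621 bridge RNA target-binding loops. Recombination efficiency here means counts per million of recombinant-junction barcodes, averaged and control-corrected. Plates were chloramphenicol/ampicillin LB agar for the control and chloramphenicol/ampicillin/kanamycin with 0.1 mM IPTG, two replicates each.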
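Further: IS621 recombinase and bridge RNA in Escherichia coli cells.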

Sequence	recombinant barcode read abundance (log10)
GAACCTACTTGGGTTCTAACCTGTTGCCA (site GGACCTACTTG)	0.0691
GAACTGCCTTGGGTTCTAACCTGTTGCTT (site CCTGACTCTGT)	0.00853
GAACTGCCTTGGGTTCTAACCTGTTGCTT (site GAACTGCCTAA)	1.35
GAAGAGTCTTGGGTTCTAACCTGTTGCCT (site GAAGAGTCTAG)	2.11
GAAGAGTCTTGGGTTCTAACCTGTTGCCT (site GCAGAGTCTAG)	0.0703
GAAGAGTCTTGGGTTCTAACCTGTTGCCT (site GGAGAGTCTAG)	0.233
GAAGAGTCTTGGGTTCTAACCTGTTGCCT (site GTAGAGTCTAG)	1.29
GAAGCGCCTTGGGTTCTAACCTGTTGCCT (site GAAGAGCCTAG)	0.0683
GAAGCGCCTTGGGTTCTAACCTGTTGCCT (site GAAGCGCCTAG)	1.42
GAAGCGCCTTGGGTTCTAACCTGTTGCCT (site GAAGGGCCTAG)	0.0832
GAAGCGCCTTGGGTTCTAACCTGTTGCCT (site GAAGTGCCTAG)	0.397
GAAGCTACTTGGGTTCTAACCTGTTGCGT (site GAAGCTACTAC)	1.84
GAAGCTACTTGGGTTCTAACCTGTTGCGT (site GATGCTACTCC)	0.0227
GAATCAACTTGGGTTCTAACCTGTTGCTT (site GAATCAACTAA)	0.0878
GAATCAACTTGGGTTCTAACCTGTTGCTT (site GACTCGACTAA)	0.119
GAATGTTCTTGGGTTCTAACCTGTTGCTT (site GAATATTCTAA)	0.0132
GAATGTTCTTGGGTTCTAACCTGTTGCTT (site GAATGTTCTAA)	0.402
GAATTAGCTTGGGTTCTAACCTGTTGCGG (site GAATTAGCTCC)	1.71
GAATTAGCTTGGGTTCTAACCTGTTGCGG (site GTATTAGCTCG)	0.287
GACAGACCTTGGGTTCTAACCTGTTGCCT (site AACAGACCTAG)	0.83
GACAGACCTTGGGTTCTAACCTGTTGCCT (site CACAGACCTAG)	0.193
GACAGACCTTGGGTTCTAACCTGTTGCCT (site GACAGACCTAG)	1.72

Sequence	recombinant barcode read abundance (log10)
GACAGACCTTGGGTTCTAACCTGTTGCCT (site TACAGACCTAG)	0.425
GACAGCCCTTGGGTTCTAACCTGTTGCTG (site GACAGCCCTCA)	0.991
GACAGCCCTTGGGTTCTAACCTGTTGCTG (site GTCAGCCCTCA)	0.0582
GACAGTACTTGGGTTCTAACCTGTTGCCT (site AACAGTACTAG)	0.165
GACAGTACTTGGGTTCTAACCTGTTGCCT (site CACAGTACTAG)	0.306
GACAGTACTTGGGTTCTAACCTGTTGCCT (site GACAGTACTAG)	0.714
GACAGTACTTGGGTTCTAACCTGTTGCCT (site TACAGTACTAG)	0.79
GACATATCTTGGGTTCTAACCTGTTGCCA (site GACATATCTCA)	0.337
GACATATCTTGGGTTCTAACCTGTTGCCA (site GACATATCTTG)	0.204
GACATATCTTGGGTTCTAACCTGTTGCTT (site ACTGGTCCTCC)	0.0369
GACATATCTTGGGTTCTAACCTGTTGCTT (site GACATATCTAA)	0.358
GACATTCCTTGGGTTCTAACCTGTTGCTT (site CTATGAACTTG)	0.0749
GACATTCCTTGGGTTCTAACCTGTTGCTT (site GACATTCCTAA)	0.21
GACCTACCTTGGGTTCTAACCTGTTGCCT (site GACATACCTAG)	0.0646
GACCTACCTTGGGTTCTAACCTGTTGCCT (site GACCTACCTAG)	1.8
GACCTACCTTGGGTTCTAACCTGTTGCCT (site GACGTACCTAG)	0.27
GACCTACCTTGGGTTCTAACCTGTTGCCT (site GACTTACCTAG)	0.359
GACCTGACTTGGGTTCTAACCTGTTGCCA (site GACCTGACTTG)	0.463
GACCTGACTTGGGTTCTAACCTGTTGCCA (site GACCTGGCTCG)	0.128
GACGAGTCTTGGGTTCTAACCTGTTGCTA (site GACGAGTCTTA)	1.01
GACGAGTCTTGGGTTCTAACCTGTTGCTA (site GGCGAGTCTTA)	0.154
GACGGACCTTGGGTTCTAACCTGTTGCAT (site GACGGACCTAT)	2.13

Sequence	recombinant barcode read abundance (log10)
GACGGACCTTGGGTTCTAACCTGTTGCAT (site TGAAAGACTCG)	0.114
GACGGACCTTGGGTTCTAACCTGTTGCTT (site GACGGACCTAA)	0.832
GACGGACCTTGGGTTCTAACCTGTTGCTT (site GATGGCCCTAA)	0.191
GACGGAGCTTGGGTTCTAACCTGTTGCTG (site GACGGAGCTCA)	1.89
GACGGAGCTTGGGTTCTAACCTGTTGCTG (site GACGGGGCTCT)	0.224
GACGGATCTTGGGTTCTAACCTGTTGCTT (site GACGGATCTAA)	0.557
GACGGATCTTGGGTTCTAACCTGTTGCTT (site GACGGATCTAC)	0.162
GACGGATCTTGGGTTCTAACCTGTTGCTT (site GACGGATCTAG)	0.197
GACGGATCTTGGGTTCTAACCTGTTGCTT (site GACGGATCTAT)	0.15
GACTCTCCTTGGGTTCTAACCTGTTGCCT (site GACTCTCCTAA)	0.21
GACTCTCCTTGGGTTCTAACCTGTTGCCT (site GACTCTCCTAC)	0.0378
GACTCTCCTTGGGTTCTAACCTGTTGCCT (site GACTCTCCTAG)	0.0776
GACTCTCCTTGGGTTCTAACCTGTTGCCT (site GACTCTCCTAT)	0.191
GACTGGCCTTGGGTTCTAACCTGTTGCAG (site ATGGACACTAC)	0.0143
GACTGGCCTTGGGTTCTAACCTGTTGCAG (site GACTGGCCTCT)	0.862
GACTTAACTTGGGTTCTAACCTGTTGCTT (site CCTAAGTCTTG)	0.0154
GACTTAACTTGGGTTCTAACCTGTTGCTT (site GACTTAACTAA)	0.48
GAGAATACTTGGGTTCTAACCTGTTGCGT (site AAGAATACTAG)	0.0615
GAGAATACTTGGGTTCTAACCTGTTGCGT (site GAGAATACTAC)	2.41
GAGAATCCTTGGGTTCTAACCTGTTGCGT (site GAGAATCCTAC)	2.49
GAGAATCCTTGGGTTCTAACCTGTTGCGT (site GAGTACCCTAC)	0.0692
GAGACAACTTGGGTTCTAACCTGTTGCCT (site GAGACAACTAG)	0.173

Sequence	recombinant barcode read abundance (log10)
GAGACAACTTGGGTTCTAACCTGTTGCCT (site GGGACAGCTAG)	0.303
GAGACGACTTGGGTTCTAACCTGTTGCCG (site GAGACGACTCG)	1.61
GAGACGACTTGGGTTCTAACCTGTTGCCG (site GAGATGACTCC)	0.0966
GAGAGATCTTGGGTTCTAACCTGTTGCCT (site GAGAAATCTAG)	0.749
GAGAGATCTTGGGTTCTAACCTGTTGCCT (site GAGACATCTAG)	0.157
GAGAGATCTTGGGTTCTAACCTGTTGCCT (site GAGAGATCTAG)	1.46
GAGAGATCTTGGGTTCTAACCTGTTGCCT (site GAGATATCTAG)	0.117
GAGAGCACTTGGGTTCTAACCTGTTGCCT (site AAGAGCACTAG)	0.256
GAGAGCACTTGGGTTCTAACCTGTTGCCT (site CAGAGCACTAG)	0.603
GAGAGCACTTGGGTTCTAACCTGTTGCCT (site GAGAGCACTAG)	1.4
GAGAGCACTTGGGTTCTAACCTGTTGCCT (site TAGAGCACTAG)	0.548
GAGAGGTCTTGGGTTCTAACCTGTTGCAT (site GAGAGGTCTAA)	0.552
GAGAGGTCTTGGGTTCTAACCTGTTGCAT (site GAGAGGTCTAC)	0.435
GAGAGGTCTTGGGTTCTAACCTGTTGCAT (site GAGAGGTCTAG)	0.458
GAGAGGTCTTGGGTTCTAACCTGTTGCAT (site GAGAGGTCTAT)	1.82
GAGAGGTCTTGGGTTCTAACCTGTTGCTT (site GAGAGGTCTAA)	1.79
GAGAGGTCTTGGGTTCTAACCTGTTGCTT (site GAGAGGTCTAC)	0.202
GAGAGGTCTTGGGTTCTAACCTGTTGCTT (site GAGAGGTCTAG)	0.893
GAGAGGTCTTGGGTTCTAACCTGTTGCTT (site GAGAGGTCTAT)	1.46
GAGCAACCTTGGGTTCTAACCTGTTGCTT (site ATAAGCTCTCG)	0.25
